Experimental data reported in patent US20230126987A1, “METHODS FOR TREATING CYTOKINE STORM SYNDROME AND RELATED DISEASES” (Generos Biopharma Ltd., priority 2020, published 2023).

Assays:
[1] = test system: RSV-infected lung epithelial cells; details: cited from earlier work
[2] = test system: LPS-induced pro-inflammatory cytokines; assay: LPS-induced acute lung injury model in mice, BALF cytokines by ELISA; details: airway LPS 1 µg day 1
H5N1 virus = details: co-administration with zanamivir, compared to antiviral treatment alone; cited from earlier work
H2N2 influenza virus = details: intraperitoneally on days 4 to 10 after exposure to H2N2 influenza virus, following the onset of illness; cited from earlier work
[3] = test system: LPS-induced pro-inflammatory cytokines; assay: Repetitive low dose LPS challenge sepsis-like persistent inflammation model in mice, whole blood cell cytokine RT-qPCR; format: in vivo, Balb/c mice; details: LPS 10 µg/mouse i.p. daily for 4 days, oral DEX 3 mg/kg or Nib1 0.6 mg/kg daily, whole blood cells RT-qPCR
Text: FIGS. 4A, 4B, and 4C show the cytokine levels of IL-1β, IL-6, and TNFα, respectively, in the whole blood cells as measured by RT-qPCR. […] At the end of experiment, whole blood cells were collected and the total RNA was extracted for RT-qPCR measurement of the cytokine mRNA. *indicates P<0.05, **indicates P<0.01, *** indicates P<0.001.
At the end of the experiment, all animals were sacrificed, and whole blood cells were purified by centrifugation and subjected to standard RT-qPCR detection of IL-6 and TNFα mRNA levels according to the manufacturer’s instructions.

[4] = test system: LPS-induced pro-inflammatory cytokines; assay: LPS-induced sepsis model in mice, plasma cytokines by ELISA; format: in vivo, Balb/c mice; details: i.p. 1 hour before LPS 10 mg/kg i.p., DEX 3 mg/kg, Nib1 5 mg/kg, 4 hours after LPS
Procedure: FIGS. 2A and 2B show the cytokine levels of TNFα and IL-6, respectively, in serum as measured by an ELISA kit. […] Whole blood was collected at 4 hours after LPS injection, and the plasma was extracted for ELISA measurement. *indicates P<0.05, **indicates P<0.01, *** indicates P<0.001, and **** indicates P<0.0001.
After 1 hour, all the animals were exposed to lethal dose of LPS (10 mg/kg, 2 mg/mL, i.p., Solarbio L8880). All animals were sacrificed 4 hours after LPS injection for tissue and whole blood collection.
FIGS. 2A and 2B show the cytokine levels of TNFα and IL-6, respectively, in the serum as measured by an ELISA kit. […] Whole blood was collected at 4 hours after LPS injection and plasma was extracted for ELISA measurement. *indicates P<0.05, **indicates P<0.01, *** indicates P<0.001, and **** indicates P<0.0001.

STAT5 = STAT5 inhibition in Jurkat cells, immunoblotting of IFNβ-induced STAT5 phosphorylation (pY694)
human PBMC = assay: LPS-induced cytokine release in human PBMC, Luminex multiplex cytokine profiling; format: cell-based; details: 10 µM 1 h before LPS 100 ng/ml for 4 h; supernatant; relative to DMSO = 100%
[5] = 3 mg/kg po qd 4 days, compared to DMSO-treated group, p<0.05

## CCCCC/C=C/C=C1/C(=O)C=C[C@@H]1C/C=C\CCCC(=O)O [15d-PGJ2]
[1]
  production of IL-1α, IL-6, and TNF cytokines, CXCL8 and CCL5 chemokines, and ICAM-1: decreased production

## CC(=O)OCC(=O)[C@@]1(O)[C@H](C)C[C@H]2[C@@H]3CCC4=CC(=O)C=C[C@]4(C)[C@@]3(F)[C@@H](O)C[C@@]21C [DEX, dexamethasone acetate]
[2]; [5]
  reduction of IL-6 level in bronchoalveolar lavage fluid: about 50%
  reduction of TNFα level in bronchoalveolar lavage fluid: about 50%

## Nc1ccc(O)c(C(=O)O)c1 [Mesalamine]
H5N1 virus
  cellular infiltrate: diminished cellular infiltrate
  survival: improved survival

## Cc1ccc(C)c(OCCCC(C)(C)C(=O)O)c1 [gemfibrozil]
H2N2 influenza virus
  survival: significantly increased survival

## O=c1[nH]c2ccccc2n1C1CCN(CCCC(c2ccc(F)cc2)c2ccc(F)cc2)CC1 [pimozide, 1-[1-[4,4-bis(4-fluorophenyl)butyl]-4-piperidinyl]-1,3-dihydro-2H-benzimidazole-2-one]
[3]; TNFα returned to basal level
  TNFα level: no difference was detected
[3]; vs DMSO (DEX p<0.05, Nib1 p<0.001)
  IL-1β level: significantly reduced
[3]; vs DMSO (both p<0.05)
  IL-6 level: significantly reduced
[4]; vs DMSO (DEX p<0.0001, Nib1 p<0.01)
  plasma level of TNFα: significantly reduced
[4]; vs DMSO (DEX p<0.01, Nib1 p<0.001)
  plasma level of IL-6: significantly reduced
STAT5; Jurkat cells pretreated with 10 µM for 1 hour, then IFNβ 50 ng/ml for 30 min
  reduction of the activation of STAT5 (phosphorylation): more than 50%
STAT5; Jurkat cells treated with 50 µM, IFNβ 50 ng/ml for 30 min
  Phospho-STAT5 signal: completely undetectable
[2]; 0.6 mg/kg po qd 4 days, vs DMSO, p<0.001
  level of IL-6 in bronchoalveolar lavage fluid: significantly reduced
[2]; 0.6 mg/kg po qd 4 days, vs DMSO, p<0.01
  level of TNFα in bronchoalveolar lavage fluid: significantly reduced
Human PBMC
  secretion of IL4: significantly reduced
  secretion of IL17A: significantly reduced
  secretion of IL23: significantly reduced
  secretion of IL-1β: significantly reduced
  secretion of IL-6: significantly reduced
